Drawing on PubChem BioAssay (NCI), this text covers TGI for 13 compounds.

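Following 48 hours of exposure in 96-well plates, responses at five concentrations were used to interpolate endpoints linearly. At the TGI there is no net growth.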 Some results are limits rather than exact numbers.

Some test systems named below: KM12 colon; SF-539 CNS; SF-295 CNS; MDA-MB-231 breast; MALME-3M melanoma; CCRF-CEM leukemia; HCT-15 colon; OVCAR-5 ovarian; HCC-2998 colon; OVCAR-8 ovarian; NCI-H226 lung; K-562 leukemia; EKVX NSCLC; U251 CNS; HL-60(TB) leukemia; IGROV1 ovarian; SK-OV-3 ovarian; HS 578T breast; RXF 393 renal.
Common to all, as to assay: inhibition of tumour cell growth, NCI panel, 48 h

As for `O=C(Cn1cc(-c2ccccc2)nn1)NC1CCCCC1`, the TGI in the assay on KM12 colon, in the assay on SF-539 CNS, with SF-295 CNS, with MDA-MB-231 breast, in the assay on MALME-3M melanoma and in the assay with CCRF-CEM leukemia was over 100 µM throughout. In addition, the TGI with HCT-15 colon, in the assay on OVCAR-5 ovarian, in the assay on HCC-2998 colon, with OVCAR-8 ovarian, with NCI-H226 lung and in the assay on K-562 leukemia was over 100 µM throughout. Further, the TGI in the assay on EKVX NSCLC, in the assay on U251 CNS, in the assay on HL-60(TB) leukemia and in the assay on IGROV1 ovarian was over 100 µM throughout.

As for `c1cnn(C23C4C5C6C4C2C6C53)c1` (stereo unspecified), the TGI in the assay on KM12 colon, with SF-539 CNS, in the assay on SF-295 CNS, in the assay on MDA-MB-231 breast, with SK-OV-3 ovarian and with CCRF-CEM leukemia was over 100 µM throughout. For the same compound, the TGI in the assay on HCT-15 colon, with OVCAR-5 ovarian, in the assay on HCC-2998 colon, with OVCAR-8 ovarian, in the assay with NCI-H226 lung and in the assay with K-562 leukemia was over 100 µM throughout. Moreover, the TGI in the assay on EKVX NSCLC, in the assay on HS 578T breast, with U251 CNS, in the assay with HL-60(TB) leukemia and with IGROV1 ovarian was over 100 µM throughout.

For the compound `O=c1[nH]nc(Cc2ccc(Cl)cc2)n1/N=C/c1ccco1`, the TGI with KM12 colon was over 100 µM; in the assay on SF-539 CNS, 90.5 µM; in the assay on SF-295 CNS, over 100 µM; in the assay with MDA-MB-231 breast it was over 100 µM; with SK-OV-3 ovarian, over 100 µM; with MALME-3M melanoma, over 100 µM. For the same compound, the TGI in the assay with CCRF-CEM leukemia, in the assay with HCT-15 colon, with OVCAR-5 ovarian, in the assay with HCC-2998 colon, in the assay on OVCAR-8 ovarian and in the assay with NCI-H226 lung was over 100 µM each time. Moreover, the TGI in the assay with K-562 leukemia was over 100 µM; in the assay with EKVX NSCLC it was over 100 µM; in the assay with U251 CNS, over 100 µM; in the assay with HL-60(TB) leukemia it was over 100 µM; in the assay on RXF 393 renal it was 91.7 µM.

Turning to `CC(C)(C)OC(=O)N[C@H]1CC(O)c2ccccc2N(CC(=O)O)C1=O` (stereo partly specified), the TGI in the assay on KM12 colon, with SF-539 CNS, in the assay with SF-295 CNS, in the assay with SK-OV-3 ovarian, in the assay on MALME-3M melanoma and with CCRF-CEM leukemia was over 100 µM throughout. For the same compound, the TGI with HCT-15 colon, in the assay with HCC-2998 colon, with OVCAR-8 ovarian, in the assay with NCI-H226 lung, with EKVX NSCLC and in the assay on HL-60(TB) leukemia was over 100 µM in each case. Also, the TGI with RXF 393 renal and in the assay with IGROV1 ovarian was over 100 µM throughout.

As for `CCc1c(CN)c(CC)c(CNC2=NCCN2)c(CC)c1CNC1=NCCN1`, the TGI with KM12 colon, in the assay with SF-539 CNS, in the assay with SF-295 CNS, in the assay on SK-OV-3 ovarian, in the assay on MALME-3M melanoma and in the assay with CCRF-CEM leukemia was over 100 µM throughout. In addition, the TGI in the assay with HCT-15 colon, in the assay with OVCAR-5 ovarian, with HCC-2998 colon, in the assay on OVCAR-8 ovarian, with NCI-H226 lung and with K-562 leukemia was over 100 µM each time. Further, the TGI in the assay with EKVX NSCLC, in the assay with HS 578T breast, in the assay on U251 CNS, in the assay on RXF 393 renal and with IGROV1 ovarian was over 100 µM throughout.

For `CC(=O)N(C)c1ccc(N=CN(C)C)cc1`, the TGI in the assay with SF-539 CNS, with SF-295 CNS, in the assay with MDA-MB-231 breast, in the assay on SK-OV-3 ovarian, with MALME-3M melanoma and in the assay with CCRF-CEM leukemia was over 100 µM each time. Besides, the TGI in the assay with HCT-15 colon, in the assay on OVCAR-5 ovarian, in the assay on OVCAR-8 ovarian, in the assay with NCI-H226 lung, with K-562 leukemia and with EKVX NSCLC was over 100 µM throughout. The TGI with U251 CNS, in the assay with HL-60(TB) leukemia, in the assay with RXF 393 renal and in the assay with IGROV1 ovarian was over 100 µM in each case.

With `OCc1cc2c(ccc3sc4ccc5sc6ccc7ncccc7c6c5c4c32)s1`, the TGI in the assay with KM12 colon was 20.4 µM; with SF-539 CNS, 32.4 µM; in the assay on SF-295 CNS, 27.7 µM; in the assay on MDA-MB-231 breast, 18.2 µM; with SK-OV-3 ovarian, 39.9 µM; in the assay with CCRF-CEM leukemia, over 100 µM. The TGI with HCT-15 colon is 33.6 µM; in the assay on OVCAR-5 ovarian, 33 µM; with OVCAR-8 ovarian, 62.1 µM; with NCI-H226 lung it was over 100 µM; with K-562 leukemia, over 100 µM; in the assay on EKVX NSCLC it was 29.7 µM. Moreover, the TGI with HS 578T breast was 31.9 µM; with U251 CNS, over 100 µM; with HL-60(TB) leukemia, 67.1 µM; in the assay with RXF 393 renal, 28.9 µM; with IGROV1 ovarian, 26.4 µM.

With `CCOP(=O)(C=C=C1CCC2[C@@H]3CCc4cc(OC)ccc4C3CC[C@]12C)OCC` (stereo partly specified), the TGI in the assay on KM12 colon was determined as 26.2 µM; in the assay on SF-539 CNS, 29 µM; in the assay with SF-295 CNS, 19.7 µM; in the assay with SK-OV-3 ovarian, 31.8 µM; in the assay with MALME-3M melanoma, 30.3 µM; in the assay with HCT-15 colon, 24.8 µM. The TGI is 31.4 µM with OVCAR-5 ovarian; 25.2 µM with HCC-2998 colon; 29.3 µM in the assay with OVCAR-8 ovarian; 21.6 µM in the assay on NCI-H226 lung; 10.7 µM in the assay on K-562 leukemia; 21.9 µM in the assay on EKVX NSCLC. Moreover, the TGI was found to be 40.3 µM in the assay with HS 578T breast; 25.5 µM with U251 CNS; 2.87 µM with HL-60(TB) leukemia; 14.8 µM in the assay with RXF 393 renal; 23.6 µM in the assay on IGROV1 ovarian.

For `CCOc1ccc(N/C(=C(/C(Cl)=C(/Cl)Nc2ccccc2)[N+](=O)[O-])n2nnc3ccccc32)cc1`, the TGI in the assay on KM12 colon is over 100 µM; in the assay with SF-295 CNS, over 100 µM; with MDA-MB-231 breast it was 58.1 µM; with SK-OV-3 ovarian it was over 100 µM; in the assay on MALME-3M melanoma it was 44.4 µM; in the assay on HCT-15 colon, 28 µM. The TGI in the assay on OVCAR-5 ovarian was over 100 µM; in the assay on HCC-2998 colon it was over 100 µM; in the assay on NCI-H226 lung, over 100 µM; in the assay with K-562 leukemia, over 100 µM; in the assay on EKVX NSCLC, over 100 µM; with U251 CNS, 33.6 µM.

Consider `O=C(O)CSC(CC1(c2ccc(Cl)cc2)NC(=O)CS1)c1ccc(Cl)cc1` (stereo unspecified), for which the TGI in the assay on KM12 colon, in the assay on SF-539 CNS, in the assay on SF-295 CNS, in the assay with MDA-MB-231 breast, with SK-OV-3 ovarian and with CCRF-CEM leukemia was over 100 µM each time. Further, the TGI in the assay with HCT-15 colon, in the assay on OVCAR-5 ovarian, in the assay with OVCAR-8 ovarian, in the assay on K-562 leukemia, in the assay with EKVX NSCLC and in the assay on HS 578T breast was over 100 µM throughout. Also, the TGI in the assay with U251 CNS, in the assay on HL-60(TB) leukemia and in the assay on IGROV1 ovarian was over 100 µM throughout.

Turning to `Oc1cc(O)c2ccc(-c3ccc(O)c(O)c3)[o+]c2c1`, the TGI in the assay with KM12 colon, with SF-539 CNS, in the assay with SK-OV-3 ovarian, in the assay with MALME-3M melanoma, in the assay with CCRF-CEM leukemia and in the assay with HCT-15 colon was over 100 µM in each case. Moreover, the TGI in the assay on OVCAR-5 ovarian, in the assay with HCC-2998 colon, in the assay on OVCAR-8 ovarian, with NCI-H226 lung, in the assay on K-562 leukemia and in the assay with EKVX NSCLC was over 100 µM throughout. The TGI in the assay with HS 578T breast, in the assay on U251 CNS, in the assay with HL-60(TB) leukemia, with RXF 393 renal and with IGROV1 ovarian was over 100 µM each time.

`Clc1ccc(Nc2nnc(CCCCCCCCc3nnc(Nc4ccc(Cl)cc4)o3)o2)cc1`: the TGI was 99.2 µM in the assay with KM12 colon; over 100 µM with SF-295 CNS; over 100 µM with MDA-MB-231 breast; over 100 µM with SK-OV-3 ovarian; over 100 µM with MALME-3M melanoma; over 100 µM in the assay on HCT-15 colon. Further, the TGI with OVCAR-5 ovarian, in the assay on HCC-2998 colon, in the assay on NCI-H226 lung, in the assay with K-562 leukemia, in the assay with EKVX NSCLC and with U251 CNS was over 100 µM in each case. The TGI in the assay on IGROV1 ovarian was over 100 µM.

In the case of `O=C1c2cccnc2S(=O)(=O)N1c1ccc(Oc2ccccc2)cc1`, the TGI with KM12 colon, with SF-539 CNS, in the assay on SF-295 CNS, in the assay with MDA-MB-231 breast, in the assay on SK-OV-3 ovarian and in the assay on MALME-3M melanoma was over 100 µM each time. Also, the TGI with CCRF-CEM leukemia, in the assay with HCT-15 colon, with OVCAR-5 ovarian, in the assay with HCC-2998 colon, in the assay with OVCAR-8 ovarian and in the assay on NCI-H226 lung was over 100 µM in each case. Also, the TGI in the assay on K-562 leukemia, in the assay on EKVX NSCLC, in the assay on U251 CNS, with HL-60(TB) leukemia, with RXF 393 renal and in the assay on IGROV1 ovarian was over 100 µM each time.
